Measured values from US10632171B2, “Melanocortin receptor-specific peptides” (Palatin Technologies, Inc., priority 2009, dated 2020).
Peptide text beside a SMILES is read from it.

Key:
[1] = molecular target: T1, hMC4-R (Homo sapiens (Human), UniProt P32245); experiment: Competitive binding assay using Eu-NDP-α-MSH; conditions: averaged; determined using Eu-NDP-α-MSH (values marked *); read-out: MC4-R Ki
Description: Alternatively, a competitive inhibition binding assay was performed employing Eu-NDP-α-MSH (PerkinElmer Life Sciences catalog No. AD0225) with determination by time-resolved fluorometry (TRF) of the lanthanide chelate. […] After incubation for 90 minutes at 37° C., the reaction was stopped by filtration over AcroWell 96-well filter plates (Pall Life Sciences). The filter plates were washed 4 times with 200 μL of ice-cold phosphate-buffered saline. DELFIA Enhancement solution (PerkinElmer Life Sciences) was added to each well. […] Each assay was conducted in duplicate and mean values were utilized. Ki values were determined by curve-fitting with Graph-Pad Prism® software using a one-site fixed-slope competition binding model.

[2] = molecular target: T1, hMC4-R; experiment: Competitive inhibition binding assay using [I125]-NDP-α-MSH; conditions: averaged; determined using [I125]-NDP-α-MSH (values not marked *); read-out: MC4-R Ki
Description: A competitive inhibition binding assay is performed using membrane homogenates prepared from HEK-293 cells that express recombinant hMC4-R, hMC3-R, or hMC5-R, and from B-16 mouse melanoma cells (containing endogenous MC1-R). In some instances, HEK-293 cells that express recombinant hMC1-R were employed. In the examples that follow, all MC3-R, MC4-R and MC5-R values are for human recombinant receptors. […] Membrane homogenates were incubated with 0.2 nM (for hMC4-R) 0.4 nM (for MC3-R and MC5-R) or 0.1 nM (for mouse B16 MC1-R or hMC1-R) [I^125]-NDP-α-MSH (Perkin Elmer) and increasing concentrations of test peptides of the present invention in buffer containing 25 mM HEPES buffer (pH 7.5) with 100 mM NaCl, 2 mM CaCl2, 2 mM MgCl2, 0.3 mM 1,10-phenanthroline, and 0.2% bovine serum albumin. After incubation for 60 minutes at 37° C., the assay mixture was filtered and the membranes washed three times with ice-cold buffer. Filters were dried and counted in a gamma counter for bound radioactivity. […] Maximal specific binding (100%) was defined as the difference in radioactivity (cpm) bound to cell membranes in the absence and presence of 1 μM NDP-α-MSH. […] Each assay was conducted in triplicate and the actual mean values are described, with results less than 0% reported as 0%. Ki values for test peptides of the present invention were determined using Graph-Pad Prism® curve-fitting software.

[3] = Induction of penile erection in male rats; assay type: in vivo, rat; conditions: IV, 0.3 or 1 mg/kg
Description: The ability of peptides of the present invention to induce penile erection (PE) in male rats were evaluated with selected peptides. Male Sprague-Dawley rats weighing 250-300 g were kept on a 12 hour on/off light cycle with food and water ad libitum. All behavioral studies were performed between 9 a.m. and 4 p.m. […] Rats are observed for one hour, and the number of yawns, grooming bouts and PEs are recorded in 10-minute bins.

[4] = Food intake and body weight change in rats; assay type: in vivo, rat; conditions: for decrease in food consumption compared to control: rats, 0-2, 0-4 and 0-20 hour periods
Description: Change in food intake and body weight was evaluated for selected peptides administered by intravenous (IV) or subcutaneous injection routes. Male Sprague-Dawley rats were obtained from Hilltop Lab Animals, Inc. (Scottsdale, Pa.) or other vendors. Animals were individually housed in conventional polystyrene hanging cages and maintained on a controlled 12 hour on/off light cycle. Water and pelleted food was provided ad libitum. The rats were dosed IV with vehicle or selected peptides (0.3 to 1.0 mg/kg), or dosed subcutaneously with vehicle or selected peptides (doses up to 30 mg/kg). […] The changes in body weight and food intake for the 48 hour and 72 hour periods after dosing can also be measured to determine reversal of changes in body weight and food intake effects back to baseline levels.

[5] = molecular target: T1, hMC4-R; experiment: Assay for agonist activity (cAMP accumulation in HEK-293 cells); assay type: cell-based
Description: Accumulation of intracellular cAMP was examined as a measure of the ability of the peptides of the present invention to elicit a functional response in HEK-293 cells that express MC4-R. Confluent HEK-293 cells that express recombinant hMC4-R were detached from culture plates by incubation in enzyme-free cell dissociation buffer. Dispersed cells were suspended in Earle's Balanced Salt Solution containing 10 mM HEPES (pH 7.5), 1 mM MgCl2, 1 mM glutamine, 0.5% albumin and 0.3 mM 3-isobutyl-1-methyl-xanthine (IBMX), a phosphodiesterase inhibitor. […] Cells were exposed for 15 minutes at 37° C. to peptides of the present invention dissolved in DMSO (final DMSO concentration of 1%) at a concentration range of 0.05-5000 nM in a total assay volume of 200 μL. […] Data analysis was performed by nonlinear regression analysis with Graph-Pad Prism® software. The maximum efficacies of the test peptides of the present invention were compared to that achieved by the reference melanocortin agonist NDP-αMSH.

[6] = rat feeding study, 0.3 and 1 mg/kg

T1 sequence (P32245 whole entry): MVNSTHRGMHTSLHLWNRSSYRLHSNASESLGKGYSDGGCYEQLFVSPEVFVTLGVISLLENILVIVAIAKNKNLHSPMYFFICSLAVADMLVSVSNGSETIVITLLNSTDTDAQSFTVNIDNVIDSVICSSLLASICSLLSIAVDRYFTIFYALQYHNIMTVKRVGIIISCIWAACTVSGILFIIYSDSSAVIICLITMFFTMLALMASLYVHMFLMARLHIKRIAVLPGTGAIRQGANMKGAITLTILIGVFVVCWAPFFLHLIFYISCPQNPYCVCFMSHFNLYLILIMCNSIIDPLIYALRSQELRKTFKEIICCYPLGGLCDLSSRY

Compound CC(=O)N[C@@H](CCCNC(=N)N)C(=O)N[C@H]1CC(=O)NCCCC[C@@H](C(=O)O)NC(=O)[C@H](Cc2c[nH]c3ccccc23)NC(=O)[C@H](CCCNC(=N)N)NC(=O)[C@@H](Cc2ccccc2)NC(=O)[C@H](C)NC1=O [compound 52, Ac-Arg-cyclo(Asp-Ala- D-Phe-Arg-Trp-Lys)-OH] (HELM PEPTIDE1{[ac].R.D.A.[dF].R.W.K}$PEPTIDE1,PEPTIDE1,3:R3-8:R3$$$V2.0) has a Ki [1] of 144 nM.

Compound CC(=O)N[C@@H](CCCNC(=N)N)C(=O)N[C@H]1CC(=O)NCCCC[C@@H](C(N)=O)NC(=O)[C@H](Cc2c[nH]c3ccccc23)NC(=O)[C@H](CCCNC(=N)N)NC(=O)[C@@H](Cc2ccccc2)NC(=O)[C@@H]2C[C@@H](O)CN2C1=O [compound 101, Ac-Arg-cyclo(Glu-Hyp- D-Phe-Arg-Trp-Orn)- NH2] has a Ki [2] of 3 nM.

In the case of CC(=O)N[C@@H](CCCNC(=N)N)C(=O)N[C@H]1CC(=O)NCCCC[C@@H](C(N)=O)NC(=O)[C@H](Cc2c[nH]c3ccccc23)NC(=O)[C@H](CCCNC(=N)N)NC(=O)[C@@H](Cc2ccccc2)NC(=O)[C@H](Cc2c[nH]cn2)NC1=O [Peptide No. 1, Ac-Arg-cyclo(Asp-His- D-Phe-Arg-Trp-Lys)- NH2], the “observed spontaneous erections compared to vehicle” value [3] is reported as “statistically significant increase”, the food intake [4, 6] is reported as “reduce food intake” and the “rate of change in body weight” value [4, 6] is reported as “decrease the rate of change in body weight”. The “decrease in food consumption compared to control” value ([4]; 0.3 mg/kg) was “statistically significant”, the “decrease in food consumption compared to control” value ([4]; 1 mg/kg) was “statistically significant” and the Emax ([5]; HEK293, NDP-α-MSH is 100%, read-out: intrinsic activity at MC4-R) was 91%. The “functional classification at MC4-R” value ([5]; agonist = intrinsic activity 70% or higher, partial agonist 10-70%) was “agonist”.

Compound CC(=O)N[C@@H](CCCNC(=N)N)C(=O)N[C@H]1CC(=O)NCCCC[C@@H](C(N)=O)NC(=O)[C@H](Cc2c[nH]c3ccccc23)NC(=O)[C@H](CCCNC(N)=O)NC(=O)[C@@H](Cc2ccccc2)NC(=O)[C@H](CCCCN)NC1=O [compound 116, Ac-Arg-cyclo(Asp-Lys- D-Phe-Cit-Trp-Lys)-NH2] (HELM PEPTIDE1{[ac].R.D.K.[dF].[Cit].W.K.[am]}$PEPTIDE1,PEPTIDE1,3:R3-8:R3$$$V2.0) has a Ki [2] of 873 nM.
